The results in this text go back to US20250034216A1, “STEREOSELECTIVE COVALENT LIGANDS FOR ONCOGENIC AND IMMUNOLOGICAL PROTEINS” (The Scripps Research Institute, priority 2021, published 2025).

The target in this test is T1, ZFAT_C392 (Homo sapiens, UniProt Q9P243).
T1 construct: endogenous in cells; host or cells: 22Rv1
T1 sequence (Q9P243 1-1243): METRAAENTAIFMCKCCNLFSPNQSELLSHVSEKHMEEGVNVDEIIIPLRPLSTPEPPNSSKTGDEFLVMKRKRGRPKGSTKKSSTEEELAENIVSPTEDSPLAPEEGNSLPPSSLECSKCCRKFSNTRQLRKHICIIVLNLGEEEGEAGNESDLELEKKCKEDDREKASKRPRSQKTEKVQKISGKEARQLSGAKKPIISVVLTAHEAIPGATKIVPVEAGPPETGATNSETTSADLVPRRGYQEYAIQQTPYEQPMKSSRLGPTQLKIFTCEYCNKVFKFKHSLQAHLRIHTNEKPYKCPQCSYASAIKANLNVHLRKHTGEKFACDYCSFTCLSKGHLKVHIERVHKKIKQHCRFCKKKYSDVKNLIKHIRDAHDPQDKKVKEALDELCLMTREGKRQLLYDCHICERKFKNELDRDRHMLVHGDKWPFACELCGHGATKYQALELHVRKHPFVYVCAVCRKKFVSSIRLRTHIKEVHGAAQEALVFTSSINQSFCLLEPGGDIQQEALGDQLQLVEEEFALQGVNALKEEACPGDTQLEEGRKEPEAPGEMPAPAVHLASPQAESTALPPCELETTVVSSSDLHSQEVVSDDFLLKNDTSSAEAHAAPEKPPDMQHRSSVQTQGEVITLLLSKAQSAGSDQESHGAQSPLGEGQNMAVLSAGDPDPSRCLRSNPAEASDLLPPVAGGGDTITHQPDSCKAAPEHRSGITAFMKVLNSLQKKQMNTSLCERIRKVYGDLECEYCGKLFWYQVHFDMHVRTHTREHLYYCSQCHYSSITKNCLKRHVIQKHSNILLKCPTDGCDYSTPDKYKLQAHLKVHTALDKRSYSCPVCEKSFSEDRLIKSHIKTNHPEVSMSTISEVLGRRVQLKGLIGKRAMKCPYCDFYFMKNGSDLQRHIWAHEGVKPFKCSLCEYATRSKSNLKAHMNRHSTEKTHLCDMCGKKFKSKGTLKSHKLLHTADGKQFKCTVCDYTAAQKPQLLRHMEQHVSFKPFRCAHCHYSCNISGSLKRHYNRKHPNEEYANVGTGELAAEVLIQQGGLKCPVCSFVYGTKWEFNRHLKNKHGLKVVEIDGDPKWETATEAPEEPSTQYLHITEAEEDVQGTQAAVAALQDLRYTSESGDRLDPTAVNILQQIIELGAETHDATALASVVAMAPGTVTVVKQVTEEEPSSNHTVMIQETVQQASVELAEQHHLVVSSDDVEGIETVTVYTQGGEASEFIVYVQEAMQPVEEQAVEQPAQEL
Briefly: IA-DTB cysteine engagement. The format is binding. As to conditions: 22Rv1 cells, 20 μM probe, 1 h, relative to DMSO. The method, boiled down: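 First, cells are exposed to electrophilic probes in situ. Next, lysates are labeled with IA-DTB (1 h, ambient temperature), reduced, alkylated and trypsin-digested. Then, IA-DTB peptides are enriched on streptavidin, TMT-labeled and analyzed, with ratios taken against DMSO channels.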

In the case of `C=CC(=O)N1C[C@H](c2ccc(Br)cc2)[C@H]1C(=O)Nc1cccc2cccnc12` [MY-3A, (2S,3S)-1-acryloyl-3-(4-bromophenyl)-N-(quinolin-8-yl)azetidine-2-carboxamide], the “% engagement ZFAT_C392” value is 17.5%. For the compound `C=CC(=O)N1C[C@@H](c2ccc(Br)cc2)[C@H]1C(=O)Nc1cccc2cccnc12` [MY-1A, (2S,3R)-1-acryloyl-3-(4-bromophenyl)-N-(quinolin-8-yl)azetidine-2-carboxamide], the “% engagement ZFAT_C392” value worked out at 32.5%.

`C=CC(=O)N1C[C@H](c2ccc(Br)cc2)[C@@H]1C(=O)Nc1cccc2cccnc12` [MY-1B, (2R,3S)-1-acryloyl-3-(4-bromophenyl)-N-(quinolin-8-yl)azetidine-2-carboxamide]: the “% engagement ZFAT_C392” value amounted to 39%. `C=CC(=O)N1C[C@H](c2ccc(Br)cc2)[C@H]1C(=O)Nc1cccc2cccnc12` [MY-3B, (2S,3S)-1-acryloyl-3-(4-bromophenyl)-N-(quinolin-8-yl)azetidine-2-carboxamide]: the “% engagement ZFAT_C392” value stood at 68.5%.
